Assay results published in patent US6197225A, “Chromene compound” (Tokuyama Corporation, priority 1997, dated 2001).

Key:
[1] = Aging promotion testing: sunlight 30 min / fading one hour cycles, 10 days (durability, coloring degree); format: physicochemical
Procedure: In order to promote the aging, furthermore, the following testing was conducted. That is, the obtained photochromic polymer was irradiated with sunlight for 30 minutes to develop color, and its color was permitted to fade for one hour in the light of a fluorescent lamp. This cycle was repeated three times a day for a total of 10 days.
The photochromic properties before and after aged were evaluated by evaluating the color densities before and after aged. The initial color density (T0) and the color density (T30) ten days after the aging promotion testing were measured, and the durability was expressed as described below.
Furthermore, the coloring degrees of before developing color were measured before and after aged by using a color difference meter (SM-4) manufactured by Suga Shikenki Co.
7 Coloring degree before being aged=YI(0).
8 Change in the coloring degree (ΔYI)=YI(10)-YI(0)
YI(10): coloring degree after aged
(§1) Photochromic polymers were prepared in the same manner as in Example 42 but using the chromene compounds obtained in Examples 2 to 41, and their maximum absorption wavelengths, color densities, fading rates, changes in the coloring degrees and durabilitys were measured.
(§2) For the purpose of comparison, furthermore, the compounds represented by the following formulas (a), (b), (c), (d), (e) and (f) were measured for their maximum absorption wavelengths, color densities, fading rates, changes in the coloring degrees and durabilitys.
(§3) The procedure was carried out in the same manner as in Example 42 but using 100 parts of AC1 and 133 parts of BC1, the sum of the amounts of AC1 and BC1 being 0.04% by weight. The obtained photochromic polymer was measured for its maximum absorption wavelength, initial color, color density, color-developing sensitivity, fading rate, durability and change in the coloring degree.
(§4) The procedure was carried out in the same manner as in Example 83 but using the known chromene compounds shown in Table 6 instead of the chromene compound used in Example 83. […]
The obtained polymer (2 mm thick) was caused to develop color outdoors, and tones of the developed color were observed by eyes 30 seconds and 15 minutes after it was brought to the outdoors, and uniformity in the step of developing color was evaluated. […] Furthermore, the aging promoting testing was conducted in the same manner as in Example 42 to find a coloring degree (YI(0)) before aged and a change in the coloring degree (ΔY).

[2] = Photochromic properties of cast polymer (2 mm thick) under xenon lamp irradiation for 120 seconds; format: physicochemical
Procedure: 0.04% by weight of the chromene compound obtained in Example 1 was added to 70 parts of 4G, 15 parts of 3G, 10 parts of GMA, 5 parts of HEMA and 1 part of perbutyl ND, and was mixed together to a sufficient degree. The mixture solution was poured into a mold constituted by a glass plate and a gasket of an ethylene/vinyl acetate copolymer, and was cast-polymerized. By using an air furnace, the polymerization was conducted in a manner that the temperature was gradually raised from 30° C. to 90° C. over a period of 18 hours, and was held at 90° C. for 2 hours. After the polymerization, the polymer was taken out from the glass mold.
By using a xenon lamp, L-2480 (300 W) SHL-100, manufactured by Hamamatsu Photonics Co., the obtained polymer (2 mm thick) was irradiated with a beam of an intensity of 365 nm=2.4 mW/cm^2 and 245 nm=24 μW/cm^2 on the surface of the polymer for 120 seconds through an aero-mass filter (manufactured by Corning Co.) at 20° C.±1° C. to develop color and to measure the photochromic properties which were expressed in the following manner.
1 Maximum absorption wavelength (λmax): λmax of the polymer after it has developed color was found by using a spectrophotometer (instantaneous multi-channel photo-detector, MCPD1000) manufactured by Otsuka Denshi Kogyo Co.
2 Initial color ( ε(0)): Absorbency of the polymer in a non-irradiated state at a wavelength same as the maximum absorption wavelength of when it is irradiated with light.
3 Color density (-)=ε(120)-ε(0). ε(120): Absorbency of the polymer at a maximum absorption wavelength after it was irradiated for 120 seconds under the above-mentioned conditions.
4 Color-developing sensitivity (-/min.)=Saturated color density/xenon irradiation time.
Rate of increase in the color density per a unit time until the color density is saturated.
5 Color fading rate [t1/2 (min.)]=time required until the absorbency of the polymer drops down to one-half of [ε(120)-ε(0)] after irradiated for 120 seconds.
as §1, §2, §3, §4

[3] = YI(10)-YI(0), single chromene compound in polymer, 10 days aging, Table 5
[4] = single chromene compound in polymer, 10 days aging, Table 5
[5] = single chromene compound 0.04% by weight in polymer, 20° C., Table 5
[6] = single chromene compound 0.04% by weight in polymer, 120 seconds, 20° C., Table 5
[7] = chromene composition, or other chromene C1-C4, 10 days aging, Table 6

Compound	Change in the coloring degree ΔYI [1, 3]	Light resistance (durability) [1, 4]	Fading rate t1/2 [2, 5]	Maximum absorption wavelength λmax [2, 5]	Color density ε(120)-ε(0) [2, 6]	Change in the coloring degree ΔYI [1, 7]	Durability [1, 7]	λ max ([2]; chromene composition, or other chromene C1-C4, 0.04% by weight in polymer, Table 6)	Color density ε(120)-ε(0) ([2]; chromene composition, or other chromene C1-C4, 120 seconds, Table 6)	Initial color ε(0) ([2]; chromene composition, or other chromene C1-C4, non-irradiated, Table 6)	Fading rate t1/2 ([2]; chromene composition, or other chromene C1-C4, Table 6)	Color-developing sensitivity ([2]; saturated color density/xenon irradiation time, Table 6)
CC(C)(C)c1cc2ccccc2c2c1C=CC(c1ccccc1)(c1ccc(OC(F)(F)F)cc1)O2 (stereo not shown) [Compound 17]	0.7	98%	3.2 min	452 nm	0.7							
COc1ccc2c3c(c(C(C)Cc4ccccc4)cc2c1)C=CC(c1ccccc1)(c1cccn1C)O3 (stereo not shown) [Compound 8]	2.0	92%	2.2 min	490 nm	0.7							
CC(C)(C)c1cc2ccccc2c2c1C=CC1(O2)C2CCCC1CCC2 (stereo not shown) [Compound 2]	1.5	96%	1.2 min	443 nm	0.5							
COc1ccc(C2(c3ccc(OC)cc3)C=Cc3c(C)cc4ccccc4c3O2)cc1 [Compound 26]	2.3	99%	6.0 min	504 nm	1.2							
COc1ccc(C2(c3ccc(OC)cc3)C=Cc3c(C(C)C)cc4ccccc4c3O2)cc1 [Compound 13]	1.5	97%	3.3 min	500 nm	0.8							
CCOC(=O)C1=CC(c2ccccc2)(c2ccccc2)Oc2c1cc(C)c1ccccc21 [b, reference compound]	6.5	80%	14 min	488 nm	1.2							
COc1ccc(C2(c3ccc(OC(F)(F)F)cc3)C=Cc3c(C(C)C)cc4ccccc4c3O2)cc1 (stereo not shown) [Compound 15]	1.2	96%	4.8 min	486 nm	0.9							
C1=CC(c2ccccc2)(c2ccccc2)Oc2ccc3ccccc3c21 [Compound C4, 3,3-Diphenyl-3H-benzo(f)chromene, reference compound]						5.0	95%	432 nm	0.5	0.01	1.0 min	0.2 -/min.
COc1ccc(C2(c3ccc(OC)c(F)c3)C=Cc3c(C)cc4ccccc4c3O2)cc1F [Compound 27]	2.3	99%	7.3 min	496 nm	1.1							
CCCc1cc2ccccc2c2c1C=CC(c1ccc(OC)cc1)(c1ccc(OC)cc1)O2 [Compound 35]	2.3	98%	4.5 min	498 nm	0.9							
CC(C)(C)c1cc2ccccc2c2c1C=CC(c1ccccc1)(c1cccs1)O2 (stereo not shown) [Compound 6]	1.8	97%	2.8 min	480 nm	0.8							
CC(C)c1cc2ccccc2c2c1C=CC1(O2)C2CCCC1CCC2 (stereo not shown) [Compound 21]	2.0	97%	1.0 min	449 nm	0.5							
COc1ccc(C2(c3ccc(OC)c(F)c3)C=Cc3c(C)cc4ccccc4c3O2)cc1 (stereo not shown) [Compound 34]	2.4	97%	6.5 min	502 nm	1.1							
CCC(C)c1cc2ccccc2c2c1C=CC1(O2)C2CCCC1CCC2 (stereo not shown) [Compound 23]	2.0	92%	1.0 min	450 nm	0.5							
CC(C)c1cc2ccccc2c2c1C=CC(c1ccccc1)(c1ccccc1)O2 [Compound 12]	1.0	99%	6.8 min	476 nm	0.9							
CC(C)c1cc2cc(O)ccc2c2c1C=CC(c1cccs1)(c1cccs1)O2 [Compound 9]	2.2	94%	2.2 min	500 nm	0.6							
CC(C)c1cc2ccccc2c2c1C=CC(c1ccccc1)(c1ccc(OC(F)(F)F)cc1)O2 (stereo not shown) [Compound 16]	1.2	99%	5.2 min	470 nm	0.9							
COc1ccc(C2(c3ccc(OC)cc3)C=Cc3ccc4ccccc4c3O2)cc1 [a, reference compound]	2.5	97%	> 30 min	492 nm	1.3							
CC(C)c1cc2ccccc2c2c1C=CC1(O2)C2CCC1CC2 (stereo not shown) [Compound 19]	5.5	92%	1.0 min	448 nm	0.5							
